In US9138434B2, “Octahydrothienoquinoline derivative, pharmaceutical composition comprising derivative, and use of these” (KISSEI PHARMACEUTICAL CO., LTD., priority 2011, dated 2015):

System: unilateral 6-OHDA-lesioned hemi-Parkinsonian rats
Test: Contralateral rotational behavior in unilateral 6-hydroxydopamine-lesioned hemi-parkinsonian rats
Format: in vivo, rat (male Sprague-Dawley)
Details: 10 mg/kg oral, fasted rats, observed up to 24 hours, mean; for Total number or rotations: contralateral rotations; for Duration: duration of contralateral rotation response
Procedure: 6-OHDA was dissolved at 2 mg/mL in a physiolosical saline solution containing 0.2% L-ascorbic acid. Desipramine was dissolved at 10 mg/mL in a physiolosical saline solution in a hot-water bath. Apomorphine was dissolved at 0.1 mg/mL in a physiolosical saline solution. […] Test compounds were dissolved in a solution containing 2% DMA, 100 or 200 mol % hydrochloric acid, and 98% of a 0.5% methyl cellulose solution. […] (Eur J Pharmacol, 2000, vol. 408, P. 249-255) with a minor modification. Male Sprague-Dawley rats (6-weeks-old, Charles River Laboratories Japan Inc.) were anaesthetized with intraperitoneal somnopentyl (45 mg/kg) injection and placed in a stereotaxic frame (Narishige). In order to prevent 6-OHDA-induced damage of noradrenergic neurons, desipramine (25 mg/kg) was intraperitoneally injected 30 minutes before the 6-OHDA injection. After the bregma identification via a middle calvarial incision, the skull was drilled using a dental drill at the site of 6-OHDA injection. The lesion was made by injecting 6-OHDA (8 μg in 4 μL at a speed of 1 μL/minute) unilaterally into the left medial forebrain bundle by using a injection cannula (30 gauge needle) connected to a microsyringe (Hamilton) (the lesion coordinates; A/P −2.5 mm, L/M −1.8 mm, and V/D −8.0 mm, from the bregma point and surface of the skull). The cannula was carefully removed from the animal after keeping placed on the lesion site for 5 minutes. The skull was filled its hole with dental cement, disinfected, and the scalp incision was surgically sutured. Animals recovered from anesthesia were housed as usual until the day of the experiment. 3) Determining of Contralateral Rotational Behavior Three weeks after the lesion, rats were tested on the basis of their contralateral rotational behavior (single rotation was defined as a 360° turn) in response to 0.1 mg/kg apomorphine given subcutaneously. For behavioral observation, rats were placed in plastic cylinders of a diameter of 30 cm, and its contralateral rotational behaviors were videotaped and quantified by rat-rotation auto counting system R-RACS (Kissei Wellcom). On the experimental day, animals were fasted overnight, and test compounds were orally administrated at doses of 10 mg/kg. […] Total number of rotations and the duration of the response in experimental period were presented as mean value.

Structure (SMILES)	Total number or rotations	Duration
CCCCN(C(=O)NCCN(C)C)C(=O)[C@@H]1C[C@@H]2Cc3c(sc(N)c3C#N)C[C@H]2N(C)C1 (relative stereo) [1-24, 1-{[(4aR*,6R*,8aR*)-2-amino-3-cyano-8-methyl-4H,4aH,5H,6H,7H,8H,8aH,9H-thieno[3,2-g]quinolin-6-yl]carbonyl}-1-butyl-3-[2-(dimethylamino)ethyl]urea]	5230.0	766.3 min
CCCCN(C(=O)NCCN(CC)CC)C(=O)[C@@H]1C[C@@H]2Cc3c(sc(N)c3C#N)C[C@H]2N(C)C1 [1-3, 1-{[(4aR,6R,8aR)-2-amino-3-cyano-8-methyl-4H,4aH,5H,6H,7H,8H,8aH,9H-thieno[3,2-g]quinolin-6-yl]carbonyl}-1-butyl-3-[2-(diethylamino)ethyl]urea]	4478.3	845.0 min
CCN(C(=O)N[C@@H](C)CN(C)C)C(=O)[C@@H]1C[C@@H]2Cc3c(sc(N)c3C#N)C[C@H]2N(C)C1 [1-57, 1-{[(4aR,6R,8aR)-2-amino-3-cyano-8-methyl-4H,4aH,5H,6H, 7H,8H,8aH,9H-thieno[3,2-g]quinolin-6-yl]carbonyl}-3-[(2S)-1-(dimethylamino)propan-2-yl]-1-ethylurea]	9976.5	1190.0 min
CCCN(CCC)CCc1cccc2c1CC(=O)N2 [Ropinirole, ropinirole, reference compound]	276.3	61.3 min
CC(C)CCN(C(=O)NCCN(C)C)C(=O)[C@@H]1C[C@@H]2Cc3c(sc(N)c3C#N)C[C@H]2N(C)C1 (relative stereo) [1-43, 1-{[(4aR*,6R*,8aR*)-2-amino-3-cyano-8-methyl-4H,4aH,5H,6H,7H,8H,8aH,9H-thieno[3,2-g]quinolin-6-yl]carbonyl}-3-[2-(dimethylamino)ethyl]-1-(3-methylbutyl)urea]	7557.5	843.8 min
CCN(C(=O)NCC(C)(C)CN(C)C)C(=O)[C@@H]1C[C@@H]2Cc3c(sc(N)c3C#N)C[C@H]2N(C)C1 [1-4, 1-{[(4aR,6R,8aR)-2-amino-3-cyano-8-methyl-4H,4aH,5H,6H,7H,8H,8aH,9H-thieno[3,2-g]quinolin-6-yl]carbonyl}-3-[3-(dimethylamino)-2,2-dimethylpropyl]-1-ethlylurea]	6338.8	1131.3 min
CCCCN(C(=O)NCCN1CCCCC1)C(=O)[C@@H]1C[C@@H]2Cc3c(sc(N)c3C#N)C[C@H]2N(C)C1 (relative stereo) [1-46, 1-{[(4aR*,6R*,8aR*)-2-amino-3-cyano-8-methyl-4H,4aH,5H,6H,7H,8H,8aH,9H-thieno[3,2-g]quinolin-6-yl]carbonyl}-1-butyl-3-[2-(piperidin-1-yl)ethyl]urea]	10329.8	1158.8 min
CCCN(C(=O)NCCN(C)C)C(=O)[C@@H]1C[C@@H]2Cc3c(sc(N)c3C#N)C[C@H]2N(C)C1 [1-1, 1-{[(4aR,6R,8aR)-2-amino-3-cyano-8-methyl-4H,4aH,5H, 6H,7H,8H,8aH,9H-thieno[3,2-g]quinolin-6-yl]carbonyl}-3-[2-(dimethylamino)ethyl]-1-propylurea]	9431.8	1101.3 min
CCN(C(=O)NCCN(C)C)C(=O)[C@@H]1C[C@@H]2Cc3c(sc(N)c3C#N)C[C@H]2N(C)C1 [1-108, 1-{[(4aR,6R,8aR)-2-amino-3-cyano-8-methyl-4H,4aH,5H,6H,7H,8H,8aH,9H-thieno[3,2-g]quinolin-6-yl]carbonyl}-3-[2-(dimethylamino)ethyl]-1-ethylurea]	2577.5	698.8 min
